Assay results published in US9891156B2, “Method for determining the permeation of a permeant through a membrane” (Paraytec Limited, priority 2014, dated 2018).

Assay: Rapid in vitro release testing of ibuprofen gel by UV/VIS area imaging
Assay type: in vitro ADME
Conditions: calculated comparison value; extinction coefficient 1.5 dm^3 g^−1 cm^−1
Text: Measurements were made by switching the LED source of UV irradiation 51 and the LED source of VIS irradiation 52 and imaging at a frame rate of 2 Hz. […] Imaging is typically carried out alternately at a first wavelength where the API absorbs light (280 or 255 nm) and a second wavelength where there is no absorption (505 nm). […] The sample assembly 20 further comprises a fused silica elongate cuvette 22 which is cuboidal and open at the upper end with a width of 7 mm, a depth of 4 mm and a wall thickness of 1 mm. […] The fused silica elongate cuvette 22 is inserted vertically inside the elongate receptor cell 24 and is capped at a lower end with a membrane 21 which is glued in place. […] The sample assembly 20 further comprises an elongate substantially planar holder 30 for the API formulation 13 (the donor phase) which is slidably inserted in the fused silica elongate cuvette 22. The elongate substantially planar holder 30 projects beyond an upper end 22a of the fused silica elongate cuvette 22 to facilitate removal. […] The vertical bar (z direction) was used for measurement of the absorbance profiles spanning the donor phase, the membrane and the receptor phase (see FIGS. 3B to D).

Depletion value of the donor phase calculated from path length, ibuprofen concentration in the gel and literature extinction coefficient: −1.5 AU
Compound: CC(C)Cc1ccc(C(C)C(=O)O)cc1 (stereo not shown) [ibuprofen]
